# Earlier results in patent US20150127309A1, “Method To Translate Biodynamic Spectrograms Into High-Content Information” (Purdue Research Foundation, priority 2013, published 2015).
# Columns and labels:
# [1] = ref [78]
# three Raf isoforms = details: in serum; refs [75-77]
smiles,measurement,setting,value
CCCS(=O)(=O)Nc1ccc(F)c(C(=O)c2c[nH]c3ncc(-c4ccc(Cl)cc4)cc23)c1F [PLX4032],toxicity,[1],minimal toxicity
same,tolerated serum levels,[1]; serum,up to 50 μM
same,activity against Raf isoforms,three Raf isoforms,active against three Raf isoforms at nanomolar concentrations
